“Also recorded” adds a separate entry of the source.
Columns and labels:
[1] = Mice PK study: plasma active metabolite Gemcitabine after dosing of prodrug; assay type: in vivo, male CD1 mouse; settings: single dose 10, 150, 300 mg/kg
Protocol: The pharmacokinetics of compounds were evaluated in male CD1 mouse via Intravenous and Oral Administration. The iv dose was administered as a slow bolus in the Jugular vein, and oral doses were administered by gavage. The formulation is 2.5% DMSO, 10% EtOH, 20% Cremphor EL, 67.5% D5W. The PK time point 5 min, 15, 30 min, 1, 2, 4, 6, 8 hours post dose. Approximately 0.03 mL blood will be collected at each time point. Keep blood at room temperature and collect plasma within 15 min by centrifugation at 4000 g for 5 minutes in a 4° C. centrifuge. Plasma samples will be stored in polypropylene tubes. The plasma samples will be stored in a freezer at −75±15° C. prior to analysis. Concentrations of compounds and the active metaboliste Gemcitabine in the plasma samples will be analyzed using a LC-MS/MS method. WinNonlin (Phoenix, version 6.1) or other similar software will be used for pharmacokinetic calculations. The following pharmacokinetic parameters will be calculated, whenever possible from the plasma concentration versus time data: IV administration: C0, CL, Vd, T1/2, AUCinf, AUClast, MRT, Number of Points for Regression; PO administration: Cmax, Tmax, T1/2, AUCinf, AUClast, F %, Number of Points for Regression. The pharmacokinetic data will be described using descriptive statistics such as mean, standard deviation. […]

[2] = Water solubility observed during formulation for the PK study; assay type: physicochemical; settings: compared with LY2334737
[3] = tested on: ovarian cancer A2780 xenograft model; test: In vivo xenograft study, ovarian cancer A2780 model; set-up: species or system mice; settings: for Tumor volume: A2780 xenograft
Source text: Compound of Example 2 was selected for in vivo studies in the ovarian cancer A2780 xenograft model. Typically, athymic nude mice (CD-1 nu/nu) or SCID mice are obtained at age 6-8 weeks from vendors and acclimated for a minimum 7-day period. The cancer cells are then implanted into the nude mice. Depending on the specific tumor type, tumors are typically detectable about two weeks following implantation. When tumor sizes reach ˜100-200 mm^3, the animals with appreciable tumor size and shape are randomly assigned into groups of 8 mice each, including one vehicle control group and treatment groups. Dosing varies depending on the purpose and length of each study, which typically proceeds for about 3-4 weeks. Tumor sizes and body weight are typically measured three times per week. In addition to the determination of tumor size changes, the last tumor measurement is used to generate the tumor size change ratio (T/C value), a standard metric developed by the National Cancer Institute for xenograft tumor evaluation. In most cases, % T/C values are calculated using the following formula: % T/C=100×ΔT/ΔC if ΔT>0. When tumor regression occurred (ΔT<0), however, the following formula is used: % T/T0=100×ΔT/T0. Values of <42% are considered significant.
Ovarian Cancer is the 5th most common cancer in women: ˜ 22,280 new cases and 14,240 death in 2016 in US. In China, Ovarian Cancer has more than 100,000 new cases each year. Gemcitabine (intravenous dosing) is the 2nd line SOC of Ovarian Cancer.

[4] = LY2334737 QD, Japanese patients, 2013; cited from earlier work
[5] = mice, single oral (gavage) dose of 167, 333, or 500 mg/kg; cited from earlier work

With `CCCC(CCC)C(=O)Nc1ccn([C@@H]2O[C@H](COC(=O)C(C)C)[C@@H](OC(=O)[C@@H](N)C(C)C)C2(F)F)c(=O)n1` [Example 2, (2R,3R,5R)-4,4-difluoro-2-[[(2-methylpropanoyl)oxy]methyl]-5-[2-oxo-4-(2-propylpentanamido)-1,2-dihydropyrimidin-1-yl]oxolan-3-yl (2S)-2-amino-3-methylbutanoate] the “PK linearity of active metabolite Gemcitabine” value [1] was “good PK linearity”, the water solubility [2] was “significant higher water solubility than LY2334737; also recorded: excellent water solubility” and the “efficacy compared with Gemcitabine (IV dosing)” value ([3]; A2780 model, Example 2 oral dosing) was “better efficacy than Gemcitabine (IV dosing)”. The Tumor volume ([3]; 75 mg/kg po q4d × 7) was 65 mm^3.
For `CCCC(CCC)C(=O)Nc1ccn([C@@H]2O[C@H](CO)[C@@H](O)C2(F)F)c(=O)n1` [LY2334737], the hepatic toxicity [4] is listed as “unexpected hepatic toxicities were observed”.
In the case of `Nc1ccn([C@@H]2O[C@H](CO)[C@@H](O)C2(F)F)c(=O)n1` [Gemcitabine], the Tumor volume ([3]; 120 mg/kg IV qw × 4) is given as 442 mm^3 and the “adverse dose-limiting intestinal lesions” value [5] is given as “moderate-to-marked loss of mucosal epithelium (atrophic enteropathy)”.

Source: patent US20220033430A1, “ORALLY ACTIVE PRODRUG OF GEMCITABINE” (TNT Medical Corporation, priority 2018, published 2022)
